Assay results as given in patent publication US5807986A, “Methods of making and screening betide libraries” (The Salk Institute For Biological Studies, priority 1995, dated 1998).
pIC50: −log10 of the molar value. Where “and” joins values, the source holds several entries; their conditions need not be identical. Equal values may be shown once. Where a SMILES comes first, the peptide text is derived from it. [ ]: non-standard residue; d: D form. dPhe(4-NH2) = Nc1ccc(C[C@@H](N)C(=O)O)cc1; dPhe(4-Cl) = N[C@H](Cc1ccc(Cl)cc1)C(=O)O; Phe(4-NH2) = Nc1ccc(C[C@H](N)C(=O)O)cc1; d2Nal = N[C@H](Cc1ccc2ccccc2c1)C(=O)O; Lys(iPr) = CC(C)NCCCC[C@H](N)C(=O)O; d3Pal = N[C@H](Cc1cccnc1)C(=O)O

Columns and labels:
[1] = examination of rats for tolerance and gelling at the point of injection; assay type: in vivo; conditions: rats of the anti-ovulation test, injected in bacteriostatic water
Experimental: (§1) The betide is assayed in vivo to determine its effectiveness to prevent ovulation in female rats. In this test, a specified number of mature female Sprague-Dawley rats, e.g. five to ten, each having a body weight from 225 to 250 grams, are injected with a specified microgram dosage of the betide in bacteriostatic water at about noon on the day of proestrus. Proestrus is the […] of ovulation. A separate female rat group is used as a control to which the peptide is not administered. Each of the control female rats ovulates on the evening of proestrus; the number of the rats treated which ovulate is recorded. […] At a dosage of 1.0 microgram for isomer (1), all ovulate while for 1 μg of isomer (2), only 6 out of 14 rats ovulate and for 0.5 μg, 3 out of 4 rats ovulate. Isomer (2) is hereinafter referred to as Betide No. 1.

[2] = hydrophilicity by retention on RP-HPLC; assay type: physicochemical
mSSTR1 = molecular target: T1, mSSTR1 (Mus musculus, UniProt P30873); assay: inhibition of radioligand binding to cloned SRIF receptor mSSTR1; conditions: cloned mouse receptor expressed on COS and CHO cells
T1 construct: expressed in transfected cells; host or cells: COS and CHO cells
T1 sequence (P30873 whole entry): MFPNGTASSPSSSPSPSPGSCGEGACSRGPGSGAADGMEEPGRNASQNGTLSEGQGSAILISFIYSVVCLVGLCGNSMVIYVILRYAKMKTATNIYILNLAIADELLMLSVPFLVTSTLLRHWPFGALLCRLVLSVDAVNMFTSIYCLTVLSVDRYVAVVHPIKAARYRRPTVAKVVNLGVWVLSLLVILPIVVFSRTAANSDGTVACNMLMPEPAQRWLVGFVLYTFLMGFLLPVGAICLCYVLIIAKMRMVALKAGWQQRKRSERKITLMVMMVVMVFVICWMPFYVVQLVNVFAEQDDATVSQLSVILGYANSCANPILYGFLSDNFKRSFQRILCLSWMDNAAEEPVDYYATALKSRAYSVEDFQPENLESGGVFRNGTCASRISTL
Experimental: (§2) In vitro Bioassay: The effects of the various somatostatin analogs are tested in vitro for their ability to bind to isolated cloned receptors expressed on COS and CHO cells.
(§3) Five such receptor subtypes termed SSTR1 through SSTR5, have been cloned and are reported and described in Raynor et al., Molecular Pharmacology, 43, 838-844 (1993) and in Raynor et al., Molecular Pharmacology, 44, 385-392 (1993).

mSSTR3 = molecular target: T2, mSSTR3 (Mus musculus, UniProt P30935); assay: inhibition of radioligand binding to cloned SRIF receptor mSSTR3; conditions: cloned mouse receptor expressed on COS and CHO cells
T2 construct: expressed in transfected cells; host or cells: COS and CHO cells
T2 sequence (P30935 whole entry): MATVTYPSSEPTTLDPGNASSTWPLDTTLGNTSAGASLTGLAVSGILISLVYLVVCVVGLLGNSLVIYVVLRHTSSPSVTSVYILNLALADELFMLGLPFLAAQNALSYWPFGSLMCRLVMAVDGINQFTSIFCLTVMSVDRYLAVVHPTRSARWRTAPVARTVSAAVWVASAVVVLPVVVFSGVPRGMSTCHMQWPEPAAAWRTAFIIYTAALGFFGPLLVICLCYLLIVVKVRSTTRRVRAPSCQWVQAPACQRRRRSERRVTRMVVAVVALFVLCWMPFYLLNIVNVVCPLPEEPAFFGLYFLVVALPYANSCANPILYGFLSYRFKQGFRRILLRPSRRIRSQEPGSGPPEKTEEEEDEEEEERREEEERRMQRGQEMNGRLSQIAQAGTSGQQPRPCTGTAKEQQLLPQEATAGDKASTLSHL
Experimental: as §2, §3

mSSTR2 = molecular target: T3, mSSTR2 (Mus musculus, UniProt P30875); assay: inhibition of radioligand binding to cloned SRIF receptor mSSTR2; conditions: cloned mouse receptor expressed on COS and CHO cells
T3 construct: expressed in transfected cells; host or cells: COS and CHO cells
T3 sequence (P30875 whole entry): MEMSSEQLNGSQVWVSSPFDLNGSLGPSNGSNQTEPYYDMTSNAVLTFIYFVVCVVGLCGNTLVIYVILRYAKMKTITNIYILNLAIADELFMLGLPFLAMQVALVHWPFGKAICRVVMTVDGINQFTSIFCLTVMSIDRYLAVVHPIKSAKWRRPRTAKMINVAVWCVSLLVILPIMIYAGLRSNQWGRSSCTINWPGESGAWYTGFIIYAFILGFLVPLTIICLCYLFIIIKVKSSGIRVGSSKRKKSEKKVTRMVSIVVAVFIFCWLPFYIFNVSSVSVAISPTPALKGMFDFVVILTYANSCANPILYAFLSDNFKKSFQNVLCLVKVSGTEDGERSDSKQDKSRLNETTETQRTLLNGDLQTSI
Experimental: as §2, §3

ovulation in female rats = assay: standard in vivo rat anti-ovulation test; set-up: species or system Sprague-Dawley rats; conditions: injected at about noon on the day of proestrus
Experimental: as §1

Molecule | pIC50 (mSSTR1) | pIC50 (mSSTR2) | rats ovulating out of rats treated (ovulation in female rats; dosage 5 μg) | also measured
CC(=O)Nc1ccc(C[C@H](NC(=O)[C@H](CO)NC(=O)C(NC(=O)c2cccnc2)NC(=O)[C@@H](Cc2ccc(Cl)cc2)NC(=O)[C@@H](Cc2ccc3ccccc3c2)NC(C)=O)C(=O)N[C@H](Cc2ccc(NC(C)=O)cc2)C(=O)N[C@@H](CC(C)C)C(=O)N[C@@H](CCCCNC(C)C)C(=O)N2CCC[C@H]2C(=O)N[C@H](C)C(N)=O)cc1 (single isomer, unassigned) [Betide No. 1, [Ac-β-D-2NAL^1, (4Cl)D-Phe^2, D/L Agl(nicotinoyl)^3, Aph(Ac)^5, D-Aph(Ac)^6, ILys^8, D-Ala^10]-GnRH] |  |  |  | tolerance and gelling at the point of injection [1]: very well tolerated, with no significant gelling at the point of injection being detectable
CC(=O)Nc1ccc(C[C@H](NC(=O)[C@H](CO)NC(=O)[C@@H](Cc2cccnc2)NC(=O)[C@@H](Cc2ccc(Cl)cc2)NC(=O)[C@@H](Cc2ccc3ccccc3c2)NC(C)=O)C(=O)N[C@H](Cc2ccc(NC(C)=O)cc2)C(=O)N[C@@H](CC(C)C)C(=O)N[C@@H](CCCCNC(C)C)C(=O)N2CCC[C@H]2C(=O)N[C@H](C)C(N)=O)cc1 [Acyline, Ac-β-D-2NAL-(4Cl)D-Phe-D-3PAL-Ser-Aph(Ac)D-Aph(Ac)-Leu-ILys-Pro-D-Ala-NH2, reference compound] (Ac-[d2Nal][dPhe(4-Cl)][d3Pal]S[Phe(4-NH2)](Ac)[dPhe(4-NH2)](Ac)L[Lys(iPr)]P[dA]-NH2) |  |  |  | retention using RP-HPLC (hydrophilicity) ([2]; gradient 40% to 75% Buffer B over 30 minutes, Buffer A TEAP pH 7.3, Buffer B 60% CH3CN and 40% Buffer A): 24.1 min
C[C@@H](O)[C@@H]1NC(=O)[C@H](CCCCN)NC(=O)C(NC(=O)c2ccc3ccccc3c2)NC(=O)[C@H](Cc2ccccc2)NC(=O)[C@H](Cc2ccccc2)NC(=O)[C@@H](N)CSSC[C@@H](C(=O)O)NC(=O)[C@H](Cc2ccccc2)NC1=O (stereo partly drawn) [Betide No. 7, (cyclo 1-8)H-Cys-Phe-Phe-(2-naphthylamido)Gly-Lys-Thr-Phe-Cys-OH] | < 6.00 | < 6.00 |  | pIC50 (mSSTR3): < 6.00
C[C@@H](O)[C@@H]1NC(=O)[C@H](CCCCN)NC(=O)C(N(C)C(=O)c2ccc3ccccc3c2)NC(=O)[C@H](Cc2ccccc2)NC(=O)[C@H](Cc2ccccc2)NC(=O)[C@@H](N)CSSC[C@@H](C(=O)O)NC(=O)[C@H](Cc2ccccc2)NC1=O (stereo partly drawn) [Betide No. 7A, (cyclo 1-8)H-Cys-Phe-Phe-(β-methyl-γ-2-naphthyl)D/L(amido)Gly-Lys-Thr- Phe-Cys-OH] | < 6.00 and 6.22 | < 6.00 |  | 
C[C@@H](O)[C@@H]1NC(=O)C(NC(=O)CCN)NC(=O)[C@@H](Cc2c[nH]c3ccccc23)NC(=O)[C@H](Cc2ccccc2)NC(=O)[C@H](Cc2ccccc2)NC(=O)[C@@H](N)CSSC[C@@H](C(=O)O)NC(=O)[C@H](Cc2ccccc2)NC1=O (stereo partly drawn) [Betide No. 8, (cyclo 1-8)H-Cys-Phe-Phe-D-Trp-γ-(2-aminoethyl)amido-glycine-Thr-Phe-Cys-OH] | < 6.00 | < 6.00 |  | pIC50 (mSSTR3): < 6.00
Ac-β-D-2NAL-(4Cl)D-Phe-D-3PAL-Ser-(4-Acetyl-amino-benzyl)D/L-amidoGly-D-Aph(acetyl)-Leu-Lys(isopropyl)-Pro-D-Ala-NH2 [Betide No. 4] |  |  | 2 out of 8 | 
Ac-β-D-2NAL-(4Cl)D-Phe-D-3PAL-Ser-Aph(acetyl)-γ-(4-acetamidophenyl)D/L-amidoGly-Leu-Lys (isopropyl)-Pro-D-Ala-NH2 [Betide No. 5] |  |  | 1 out of 8 | rats ovulating out of rats treated (ovulation in female rats; dosage 2.5 μg): 2 out of 4
Ac-β-D-2NAL-(4Cl)D-Phe-D-3PAL-Ser-γ-(4-hydroxyphenyl)D/L-amidoGly-D-Aph(acetyl)-Leu-Lys(isopropyl)-Pro-D-Ala-NH2 [Betide No. 4A] |  |  | 2 out of 16 | 
Ac-β-D-2NAL-(4Cl)D-Phe-D-(3-pyridyl)Ala-Ser-Aph(acetyl)-D-Aph(acetyl)-D/L-Agl(Acetyl)-Lys(isopropyl)-Pro-D-Ala-NH2 [Betide No. 2] |  |  | 5 out of 8 | hydrophilicity compared to Acyline ([2]; RP-HPLC): more hydrophilic than Acyline; rats ovulating out of rats treated (ovulation in female rats; dosage 10 μg): 0 out of 8
[Ac-βCH3 -D-2NAL^1, 4ClD-Phe^2, D-3PAL^3, Aph(atz)^5, D-Aph(atz)^6, ILys^8, D-Ala^10 ]-GnRH [E stereoisomer] |  |  |  | rats ovulating out of rats treated (ovulation in female rats; dosage 1.0 μg): partially active; rats ovulating out of rats treated (ovulation in female rats; dosage 2.5 μg): fully active
